In ChEMBL document CHEMBL1681750, “Cofactor-type inhibitors of inosine monophosphate dehydrogenase via modular approach: targeting the pyrophosphate binding sub-domain” (Bioorg Med Chem, 2011) one finds IC50 and Ki data, which are given here for 5 molecules.

The subject of assay [1] is K562. The assay can be described thus: Antiproliferative activity against human K562 cells after 72 hrs by MTS assay. The note with it: K562, 72 h. The assay is classed as functional, cell-based. (Tetrazolium dyes change colour on reduction, which living cells bring about.)
In assay [2] the target is Inosine-5'-monophosphate dehydrogenase 1 (Homo sapiens, UniProt P20839). Nature of the assay: Inhibition of human IMPDH1 by Spectrophotometry.

Each structure is given as a SMILES string.

Chain of Inosine-5'-monophosphate dehydrogenase 1 (P20839 whole entry): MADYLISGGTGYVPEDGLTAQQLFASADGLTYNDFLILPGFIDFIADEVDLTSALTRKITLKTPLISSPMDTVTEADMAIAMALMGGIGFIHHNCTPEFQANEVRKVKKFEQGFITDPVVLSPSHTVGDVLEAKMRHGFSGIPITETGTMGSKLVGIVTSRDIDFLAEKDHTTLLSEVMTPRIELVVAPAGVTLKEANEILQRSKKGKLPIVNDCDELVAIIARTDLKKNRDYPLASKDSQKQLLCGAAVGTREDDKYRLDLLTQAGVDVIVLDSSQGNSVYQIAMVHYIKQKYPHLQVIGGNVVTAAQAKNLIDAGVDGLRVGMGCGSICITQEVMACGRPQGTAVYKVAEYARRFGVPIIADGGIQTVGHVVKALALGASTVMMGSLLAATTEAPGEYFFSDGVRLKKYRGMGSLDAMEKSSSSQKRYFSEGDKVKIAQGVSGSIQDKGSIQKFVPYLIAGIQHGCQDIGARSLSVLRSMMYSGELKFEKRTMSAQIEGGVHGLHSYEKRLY

The molecule `NC(=O)c1csc([C@@H]2O[C@H](COP(=O)(O)CC(=O)NC[C@@H]3O[C@H](n4cnc5c(N)ncnc54)[C@@H](O)[C@H]3O)[C@@H](O)[C@H]2O)n1` returned an IC50 in assay [1] above 100 µM. The molecule further had a Ki in assay [2] of 14.2 µM.
As to `CCc1nc(N)c2ncn([C@H]3O[C@@H](COP(=O)(O)OP(=O)(O)OC[C@H]4O[C@@H](c5nc(C(N)=O)cs5)[C@H](O)[C@@H]4O)[C@H](O)[C@@H]3O)c2n1`, the affinity in assay [2], expressed as Ki, was 0.001 µM.
In assay [1], `CCc1nc(N)c2ncn([C@H]3O[C@@H](COP(=O)(O)C(F)(F)P(=O)(O)OC[C@H]4O[C@@H](c5nc(C(N)=O)cs5)[C@H](O)[C@@H]4O)[C@H](O)[C@@H]3O)c2n1` displayed a concentration for half-maximal inhibition (IC50) of 4.7 µM. The same molecule had a Ki in assay [2] of 0.013 µM.
The like results for `NC(=O)c1csc([C@@H]2O[C@H](CNS(=O)(=O)CS(=O)(=O)NC[C@@H]3O[C@H](n4cnc5c(N)ncnc54)[C@@H](O)[C@H]3O)[C@@H](O)[C@H]2O)n1` were, in that order, above 100 µM and 23.6 µM.
The molecule `COc1c(C)c2c(c(O)c1CCOP(=O)(O)CCP(=O)(O)O)C(=O)OC2` [MYCOPHENOLIC ETHYLENEBIS] yielded a concentration for half-maximal inhibition (IC50) in assay [1] above 100 µM. Further, affinity in assay [2] was put at a Ki of 5.55 µM.

Broadly, the IC50 is the concentration that inhibits the measured activity by half. A high value points to lower potency. As usually defined, the Ki is a measure of affinity in units of concentration, obtained from inhibition or displacement. Low readings indicate a stronger hold on the target, high ones a looser hold on the target.
